In US7195900B2, “Cloning and expression of D-amino acid oxidase from arthrobacter protophormiae” (Degussa AG, priority 2002, dated 2007):

Assays:
recombinant D-AAO = target: T1, recombinant D-AAO (Glutamicibacter protophormiae, UniProt Q7X2D3); test: Substrate specificity of the recombinant D-AAO (photometric peroxidase/o-dianisidine test); assay type: biochemical, Arthrobacter protophormiae; details: for activity at 20000 µM: DL-amino acid, concentration increased to 20 mM; for activity at 20000 µM / activity at 10000 µM: read-out: Relative activity; for Substrate quality (in words): partial substrate spectrum, Table 2; for Stereoselectivity: conversion of L-amino acids by D-AAO: L-amino acids as substrate
T1 construct: The restriction sites NdeI and BamHI were attached to the dao gene by PCR; made in house; host or cells: E. coli BL21(DE3)
Procedure: (§1) To isolate D-AAO-forming microorganisms, soil samples were plated out on a nutrient medium in which coryneform bacteria can be concentrated: Na propionate 0.20 g; KNO3 0.01 g; KH2PO4 0.10 g; NaCl 0.25 g; MgSO4.7 H2O 0.10 g; CaCO3 0.02g; trace elements; vitamin solution; cycloheximide 0.05 g; if appropriate, agar 20.00 g; final pH 7.0. Microorganisms which grew on this medium were then transinoculated into a complex medium (DSM 65) with the following composition (per 1l): glucose 4.00 g; yeast extract 4.00 g; malt extract 10.00 g; agar 20 g; final pH 7.2. The strains were then multiplied in liquid medium (DSM 65), harvested by centrifugation, broken down, and the cell-free supernatant was obtained by centrifugation (=crude extract). This crude extract was then employed as an enzyme source for the photometric test for D-AAO activity. The test batch contained: 20 μl amino acid solution (100 mM); 80 μl TEA/o-dianisidine buffer; 10 μl peroxidase soln. (1,000 U/ml); 70 μl H2O; 20 μl crude extract. The measurement was carried out at 436 nm; 1 U corresponds to an amount of enzyme which converts 1 μmol of amino acid or 1 μmol of o-dianisidine per min (extinction coefficient ε for o-dianisidine=8.1 mM^−1 cm^−1).
A partial substrate spectrum was recorded for D-AAO (Table 2).
The stereoselectivity of the D-AAO was tested with the amino acids L-leucine, L-methionine and L-lysine. […] Thus, the D-AAO from Arthrobacter protophormiae can be described as highly stereoselective for D-amino acids.

partly purified D-AAO = target: T2, partly purified D-AAO (Glutamicibacter protophormiae, UniProt Q7X2D3); test: biochemical; details: read-out: Substrate excess inhibition K1
T2 sequence (Q7X2D3 1-326): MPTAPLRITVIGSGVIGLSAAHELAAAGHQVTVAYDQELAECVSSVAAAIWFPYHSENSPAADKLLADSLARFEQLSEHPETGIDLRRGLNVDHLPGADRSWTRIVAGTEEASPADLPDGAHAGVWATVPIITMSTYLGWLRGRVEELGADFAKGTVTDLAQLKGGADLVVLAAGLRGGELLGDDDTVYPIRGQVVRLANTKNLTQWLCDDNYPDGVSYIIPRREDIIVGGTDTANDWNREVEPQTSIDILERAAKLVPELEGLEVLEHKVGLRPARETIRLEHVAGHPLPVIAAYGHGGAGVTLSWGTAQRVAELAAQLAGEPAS
Procedure: as §1

D-AAO = target: T3, D-AAO (Glutamicibacter protophormiae, UniProt Q7X2D3); test: Influence of pH on D-AAO activity; assay type: biochemical, Arthrobacter protophormiae; details: three substrates (lysine, phenylalanine, methionine), 10 mM; three 80 mM buffers
T3 sequence (Q7X2D3 whole entry, looked up): T2 sequence (Q7X2D3 1-326)
Procedure: The enzyme activity was measured with three different substrates in the following 80 mM buffers: ♦ citric acid-sodium phosphate, pH 5–7; ▪ TEA/HCl, pH 7–8.5; ▴ glycine/NaOH, pH 8.5–11. Each D-amino acid tested was employed in a final concentration of 10 mM.
The influence of pH on the activity of the D-AAO with respect to the substrates […] was investigated in three different buffers: citric acid-sodium phosphate […]; TEA/HCl pH 7.0–8.5; and glycine/NaOH pH 8.5–11). The optimum pH for all three substrates was in the weakly basic range, between pH 7.5–8.5 (FIG. 2).

[1] = D-AAO activity assay (specific activity of enzyme preparations); assay type: biochemical
Procedure: as §1
Recombinant D-AAO was purified to homogeneity using a two-step procedure (Table 1). E. coli BL21(DE3) carrying pApdao was disrupted by ultrasonification and cell debris was removed by centrifugation. The cleared supernatant was loaded onto a Q-Sepharose FF column (h 10 cm×Ø 2.6 cm) (Amersham Bioscience), which was equilibrated with 10 mM potassium phosphate buffer pH 7.0 and run at a flow rate of 2 ml/min. The column was washed with 10 mM potassium phosphate buffer pH 7.0 containing 0.2 M NaCl and the D-AAO was eluted by increasing the salt concentration up to 0.35 M. Active fractions were pooled and loaded onto a column, which was packed with ceramic MacroPrep hydroxyapatite, type I (h 8.3 cm×Ø 1.6 cm) (Bio-Rad). The column was equilibrated with 10 mM potassium phosphate buffer pH 6.8 containing 150 mM NaCl and the flow rate was 2 ml/min. The D-AAO was detected in the flow-through.

[2] = Isoelectric focussing of D-AAO; assay type: physicochemical; details: experimentally determined, polyacrylamide gels pH 4–6
Procedure: A molecular mass for a monomer of the D-AAO of 40 kDA was determined by means of SDS gel electrophoresis. […] The calculated molecular mass of the monomer was 34.6 kDa without and 35.4 kDa with FAD. These values indicate that the enzyme has a dimeric structure. Isoelectric focussing was performed using precast Serva polyacrylamide gels with a narrow pH range (pH 4–6). The experimentally determined pI was 4.4.

[3] = substrate: CSCC[C@@H](N)C(=O)O; test: purified protein, by the assay type; details: other: partly purified D-AAO

## NC(Cc1ccc(F)cc1)C(=O)O (racemic) [4-Fluoro-DL-phenylalanine]
Recombinant D-AAO
  activity at 20000 µM: 81%

## CC(C)(C)C(N)C(=O)O (racemic) [DL-tert-Leucine]
Recombinant D-AAO
  activity at 20000 µM: 0.12%

## CNC(CC(C)C)C(=O)O (racemic) [N-Methyl-DL-leucine]
Recombinant D-AAO
  activity at 20000 µM: 2.1%

## COCC(N)C(=O)O (racemic) [O-Methyl-DL-serine]
Recombinant D-AAO
  activity at 20000 µM: 0.33%

## C[C@@H](N)C(=O)O [D-Alanine]
Recombinant D-AAO
  activity at 10000 µM: 0.26%

## N=C(N)NCCC[C@@H](N)C(=O)O [D-Arginine]
Recombinant D-AAO
  Substrate quality (in words): effective in converting
  activity at 10000 µM: 80%

## N[C@H](Cc1c[nH]cn1)C(=O)O [D-Histidine]
Recombinant D-AAO
  activity at 10000 µM: 5.9%

## CC(C)C[C@@H](N)C(=O)O [D-Leucine]
Recombinant D-AAO
  activity at 10000 µM: 12%

## NCCCC[C@@H](N)C(=O)O [D-Lysine]
Recombinant D-AAO
  Substrate quality (in words): best substrates
  activity at 10000 µM: 99%

## CSCC[C@@H](N)C(=O)O [D-Methionine]
Recombinant D-AAO
  Substrate quality (in words): best substrates
  activity at 10000 µM: 100%

## N[C@H](Cc1ccccc1)C(=O)O [D-Phenylalanine]
Recombinant D-AAO
  Substrate quality (in words): effective in converting
  activity at 10000 µM: 54%
Partly purified D-AAO
  Ki: 55 mM

## O=C(O)[C@H]1CCCN1 [D-Proline]
Recombinant D-AAO
  activity at 10000 µM: 0.25%

## CC(C)[C@@H](N)C(=O)O [D-Valine]
Recombinant D-AAO
  activity at 10000 µM: 0.35%

## CC[C@H](C)[C@@H](N)C(=O)O [D-allo-Isoleucine]
Recombinant D-AAO
  activity at 10000 µM: 1%

## CC(C)C[C@H](N)C(=O)O [L-leucine]
Recombinant D-AAO
  Stereoselectivity: conversion of L-amino acids by D-AAO: None of these compounds were converted

## NCCCC[C@H](N)C(=O)O [L-lysine]
Recombinant D-AAO
  Stereoselectivity: conversion of L-amino acids by D-AAO: None of these compounds were converted

## CSCC[C@H](N)C(=O)O [L-methionine]
Recombinant D-AAO
  Stereoselectivity: conversion of L-amino acids by D-AAO: None of these compounds were converted

B1: partly purified D-AAO (Glutamicibacter protophormiae) (protein)
chain: T2 sequence (Q7X2D3 1-326)
D-AAO
  Optimum pH: 7.5–8.5 pH
[1]; after Hydroxyapatite (second chromatography), 10 mM D-Met, pH 7.6, 30° C.
  Specific activity: 180 U/mg
[1]; after Q-Sepharose, 10 mM D-Met, pH 7.6, 30° C.
  Specific activity: 80 U/mg
[1]; after high cell density fermentation of E. coli BL21(DE3) carrying pE1D
  Specific activity: 15 U mg^−1
[1]; crude extract, E. coli BL21(DE3), 3 g cells, 10 mM D-Met, pH 7.6, 30° C.
  Specific activity: 30 U/mg
[1]; crude extracts of recombinant cells
  Specific activity in the crude extracts of recombinant cells: 15–30 U mg^−1
[1]; shaking flask, E. coli BL21(DE3) pE1D, 100 μM IPTG, 4 h at 30° C.
  Specific D-AAO activity in the crude extract: 30 U/mg
[2]
  pI: 4.4
[3]
  Km: 900 µM
